Data as given in patent US4933104A, “Anthraquinone derivative as a dichroic dye for a liquid-crystal material, liquid-crystal material and an electrooptical device” (priority 1986, dated 1990).
Where “and” joins values, the source holds several entries; their conditions need not be identical. Equal values may be shown once.

Assays:
Format in all cases: physicochemical
[1] = λmax of the long-wave absorption band of the dye; details: Table 7; two values = two maxima
Procedure: A weighed sample of one or several anthraquinone derivatives of general formula /1/ is dissolved upon heating to 60° C. in a liquid-crystalmatrix and then cooled to 20° C.

[2] = limiting solubility in liquid-crystalline mixtures at 20° C.; details: for Solubility (limiting), known derivatives: Table 6, derivatives of SU 1089084
[3] = λmax of the long-wave absorption band of the dye; details: Table 1 / Examples; several values = several maxima
Procedure: (§1) Table 1 given below lists the values of negative dichroism of the anthraquinone derivative of general formula /1/ for examples 1-30 in a liquid-crystalline mixture ZK-807; Table 2 illustrates physico-chemical characteristics, and Table 3--limiting solubility in liquid-crystalline mixtures (ZK-807, ZLI-1840, 3010, SP-586, ZK-1282) at 20° C.

[4] = negative dichroism S in a liquid-crystalline mixture; details: liquid-crystalline mixture ZK-807
Procedure: as §1

| SMILES | λmax, known derivatives [1] [nm] | Solubility (limiting), known derivatives ([2]; ZK-807, 20° C.) [mass %] | Solubility (limiting), known derivatives ([2]; ZLI-1840, 20° C.) [mass %] | λmax [3] | negative dichroism S [4] | Solubility (limiting) ([2]; 3010, 20° C.) [mass %] | Solubility (limiting) ([2]; SP-586, 20° C.) [mass %] | Solubility (limiting) ([2]; ZK-807, 20° C.) [mass %] | Solubility (limiting) ([2]; ZK-1282, 20° C.) [mass %] | Solubility (limiting) ([2]; ZLI-1840, 20° C.) [mass %] |
| --- | --- | --- | --- | --- | --- | --- | --- | --- | --- | --- |
| CCCCc1ccc(C(=O)Nc2ccc(O)c3c2C(=O)c2c(NC(=O)c4ccc(CCCC)cc4)ccc(OC(=O)c4ccc(CCCC)cc4)c2C3=O)cc1 [No. 8, Table 6, reference compound] | 535 | 1.0 | 0.3 | – | – | – | – | – | – | – |
| CCCCCC1CCC(c2ccc(C(=O)Nc3ccc(O)c4c3C(=O)c3c(NC(=O)c5ccc(C6CCC(CCCCC)CC6)cc5)ccc(OC(=O)c5ccc(C6CCC(CCCCC)CC6)cc5)c3C4=O)cc2)CC1 (centres unmarked) [No. 10, Table 6, reference compound] | 554 | 0.2 | 0.6 | – | – | – | – | – | – | – |
| CCCCCCc1ccc(C(=O)Nc2ccc(NC(=O)c3ccc(CCCCCC)cc3)c3c2C(=O)c2ccccc2C3=O)cc1 [No. 4, Table 6, reference compound] | 512 | 2.3 | 0.6 | – | – | – | – | – | – | – |
| CCCCc1ccc(C(=O)Nc2ccc(OC(=O)c3ccc(CCCC)cc3)c3c2C(=O)c2c(NC(=O)c4ccc(CCCC)cc4)ccc(OC(=O)c4ccc(CCCC)cc4)c2C3=O)cc1 [No. 6, Table 6, reference compound] | 470 | 0.5 | – | – | – | – | – | – | – | – |
| CCCCCCc1ccc(C(=O)Nc2ccc(OC(=O)c3ccc(CCCCCC)cc3)c3c2C(=O)c2c(NC(=O)c4ccc(CCCCCC)cc4)ccc(OC(=O)c4ccc(CCCCCC)cc4)c2C3=O)cc1 [No. 5, Table 6, reference compound] | 468 | 0.5 | 0.1 | – | – | – | – | – | – | – |
| CCCCCCc1ccc(C(=O)Nc2ccc(O)c3c2C(=O)c2c(NC(=O)c4ccc(CCCCCC)cc4)ccc(O)c2C3=O)cc1 [No. 9, Table 6, reference compound] | 562 | 0.1 | – | – | – | – | – | – | – | – |
| CCCCc1ccc(C(=O)Nc2ccc(NC(=O)c3ccc(CCCC)cc3)c3c2C(=O)c2ccccc2C3=O)cc1 [No. 3, Table 6, reference compound] | 508 | 2.0 | 0.3 | – | – | – | – | – | – | – |
| CCCCCC1CCC(c2ccc(C(=O)Nc3cc(CCCC)c(O)c4c3C(=O)c3c(NC(=O)c5ccc(C6CCC(CCCCC)CC6)cc5)cc(CCCC)c(OC(=O)CCC)c3C4=O)cc2)CC1 (centres unmarked) [Compound 22] | – | – | – | 545 nm | -0.38 | 2.0 | 1.2 | 1.1 | 1.5 | 1.4 |
| CCCCCC1CCC(c2ccc(C(=O)Nc3cc(CCCC)c(OC(=O)CCC)c4c3C(=O)c3c(NC(=O)c5ccc(C6CCC(CCCCC)CC6)cc5)cc(CCCC)c(OC(=O)CCC)c3C4=O)cc2)CC1 (centres unmarked) [Compound 12] | – | – | – | 473 nm | -0.35 | 1.82 | – | 5.2 | – | – |
| CCCCCC1CCC(c2ccc(C(=O)Nc3ccc(O)c4c3C(=O)c3c(NC(=O)c5ccc(C6CCC(CCCCC)CC6)cc5)cc(CCCC)c(O)c3C4=O)cc2)CC1 (centres unmarked) [Compound 28] | – | – | – | 564 nm and 605 nm | -0.32 | 1.1 | 0.8 | 0.6 | 1.0 | 1.0 |
| CCCCC[C@H]1CC[C@H](c2ccc(C(=O)Nc3ccc(O)c4c3C(=O)c3c(NC(=O)c5ccc([C@H]6CC[C@H](CCCCC)CC6)cc5)cc(C)c(O)c3C4=O)cc2)CC1 [Compound 27, 1,8-Bis-4-(trans-4-amylcyclohexyl)benzamido-3-methyl-4,5-dioxyanthraquinone] | – | – | – | 562 nm and 603 nm | -0.33 | 1.0 | – | 1.0 | 1.0 | 1.0 |
| CCCCCCC1CCC(c2ccc(C(=O)Nc3cc(CCCC)c(O)c4c3C(=O)c3c(NC(=O)c5ccc(C6CCC(CCCCCC)CC6)nc5Cl)cc(CCCC)c(OC(=O)c5ccc(C6CCC(CCCCCC)CC6)nc5Cl)c3C4=O)c(Cl)n2)CC1 (centres unmarked) [Compound 20] | – | – | – | 534 nm | -0.33 | 0.75 | – | 1.2 | – | 0.7 |
| CCCCc1ccc(C(=O)Nc2ccc(O)c3c2C(=O)c2c(NC(=O)c4ccc(CCCC)cc4)ccc(O)c2C3=O)cc1 [No. 7, Table 6, reference compound] | 560 | 0.1 | – | – | – | – | – | – | – | – |
